Laboratory results from PubChem BioAssay AID328 (DTP/NCI, 2004).
Values joined by “and” are separate entries in the source; they are usually repeats but may differ in a detail not shown here. Identical values can stand only once. Inconclusive results and toxic doses are left out.

System: BDF1 mice, P388 leukemia ip, median survival T/C
Assay: NCI In Vivo Anticancer Drug Screen. Data for tumor model P388 Leukemia (intraperitoneal) in B6D2F1 (BDF1) mice
Conditions: endpoint: median survival time, higher = longer survival
How it was run: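 T/C = treated-group survival ÷ vehicle-control survival; tumour transplanted into mice before dosing.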

[1] = dose: 200.0 mg/kg/injection, schedule: Q01DX009 (ip), vehicle: saline
[2] = dose: 50.0 mg/kg/injection, schedule: Q01DX005 (ip), vehicle: saline
[3] = dose: 100.0 mg/kg/injection, schedule: Q01DX005 (ip), vehicle: saline
[4] = dose: 200.0 mg/kg/injection, schedule: Q01DX005 (ip), vehicle: saline
[5] = dose: 100.0 mg/kg/injection, schedule: Q01DX009 (ip), vehicle: saline with Tween-80
[6] = dose: 100.0 mg/kg/injection, schedule: Q04DX003 (ip), vehicle: saline with Tween-80
[7] = dose: 200.0 mg/kg/injection, schedule: Q01DX009 (ip), vehicle: saline with Tween-80
[8] = dose: 200.0 mg/kg/injection, schedule: Q04DX003 (ip), vehicle: saline with Tween-80
[9] = dose: 400.0 mg/kg/injection, schedule: Q01DX009 (ip), vehicle: saline with Tween-80
[10] = dose: 400.0 mg/kg/injection, schedule: Q04DX003 (ip), vehicle: saline with Tween-80
[11] = dose: 100.0 mg/kg/injection, schedule: Q01DX009 (ip), vehicle: Klucel (hydroxypropylcellulose) (HPC)
[12] = dose: 100.0 mg/kg/injection, schedule: Q04DX003 (ip), vehicle: Klucel (hydroxypropylcellulose) (HPC)
[13] = dose: 200.0 mg/kg/injection, schedule: Q01DX009 (ip), vehicle: Klucel (hydroxypropylcellulose) (HPC)
[14] = dose: 200.0 mg/kg/injection, schedule: Q04DX003 (ip), vehicle: Klucel (hydroxypropylcellulose) (HPC)
[15] = dose: 400.0 mg/kg/injection, schedule: Q04DX003 (ip), vehicle: Klucel (hydroxypropylcellulose) (HPC)
[16] = dose: 50.0 mg/kg/injection, schedule: Q01DX009 (ip), vehicle: saline with Tween-80

In the case of `C/C=C(\C)C(=O)O[C@@H]1c2cc3c(cc2-c2c(cc(OC)c(OC)c2OC)[C@@H]2C(=O)OC[C@@H]12)OCO3`, the T/C (dose: 1.0 mg/kg/injection, schedule: Q01DX009 (ip), vehicle: saline + alcohol) is reported as 100 % of control, the T/C (dose: 1.3 mg/kg/injection, schedule: Q01DX009 (ip), vehicle: saline) is reported as 90 % of control and the T/C (dose: 2.0 mg/kg/injection, schedule: Q01DX009 (ip), vehicle: saline + alcohol) is reported as 100 % of control. For the same molecule, the T/C (dose: 2.0 mg/kg/injection, schedule: Q01DX009 (ip), vehicle: saline) was 100 % of control, the T/C (dose: 3.0 mg/kg/injection, schedule: Q01DX009 (ip), vehicle: saline) was 100 % of control and the T/C (dose: 4.0 mg/kg/injection, schedule: Q01DX009 (ip), vehicle: saline + alcohol) was 109 % of control. The T/C (dose: 5.3 mg/kg/injection, schedule: Q01DX009 (ip), vehicle: saline with Tween-80) was 110 % of control, the T/C (dose: 7.11 mg/kg/injection, schedule: Q01DX009 (ip), vehicle: saline + alcohol) was 158 % of control and the T/C (dose: 8.0 mg/kg/injection, schedule: Q01DX009 (ip), vehicle: saline + alcohol) was 118 % of control. The T/C (dose: 8.0 mg/kg/injection, schedule: Q01DX009 (ip), vehicle: saline with Tween-80) was 110 % of control, the T/C (dose: 10.66 mg/kg/injection, schedule: Q01DX009 (ip), vehicle: saline + alcohol) was 95 % of control and the T/C (dose: 12.0 mg/kg/injection, schedule: Q01DX009 (ip), vehicle: saline with Tween-80) was 110 % of control. For the same molecule, the T/C (dose: 16.0 mg/kg/injection, schedule: Q01DX009 (ip), vehicle: saline + alcohol) was 91 % of control, the T/C (dose: 21.4 mg/kg/injection, schedule: Q01DX009 (ip), vehicle: saline) was 110 % of control and the T/C (dose: 24.0 mg/kg/injection, schedule: Q01DX009 (ip), vehicle: saline + alcohol) was 100 % of control. The T/C (dose: 32.0 mg/kg/injection, schedule: Q01DX009 (ip), vehicle: saline) was 115 % of control, the T/C (dose: 48.0 mg/kg/injection, schedule: Q01DX009 (ip), vehicle: saline) was 100 % of control and 120 % of control and the T/C (dose: 72.0 mg/kg/injection, schedule: Q01DX009 (ip), vehicle: saline) was 113 % of control. For the same molecule, the T/C (dose: 88.0 mg/kg/injection, schedule: Q01DX009 (ip), vehicle: saline) was 95 % of control, the T/C (dose: 108.0 mg/kg/injection, schedule: Q01DX009 (ip), vehicle: saline) was 95 % of control and the T/C (dose: 133.0 mg/kg/injection, schedule: Q01DX009 (ip), vehicle: saline) was 100 % of control. The T/C [1] was 90 % of control.
With `OCCN(CCO)C(CO)(CO)CO` the T/C [2] was 100 % of control, the T/C [3] was 98 % of control and the T/C [4] was 104 % of control.
In the case of `CC1(c2cccc(N)c2)OCCO1`, the T/C [5] is reported as 100 % of control, the T/C [6] is reported as 90 % of control and the T/C [7] is reported as 95 % of control. For the same molecule, the T/C [8] was 109 % of control, the T/C [9] was 90 % of control and the T/C [10] was 109 % of control.
In the case of `Cn1ccoc1=NC1CCCCC1`, the T/C (dose: 50.0 mg/kg/injection, schedule: Q04DX003 (ip), vehicle: saline with Tween-80) is reported as 100 % of control, the T/C [6] is reported as 100 % of control and the T/C [8] is reported as 109 % of control.
`CNC(=S)N/N=C(/C)CCC(=O)O` was tested, and the T/C (dose: 6.75 mg/kg/injection, schedule: Q01DX009 (ip), vehicle: saline with Tween-80) was 87 % of control, the T/C (dose: 13.5 mg/kg/injection, schedule: Q01DX009 (ip), vehicle: saline with Tween-80) was 88 % of control and the T/C (dose: 27.0 mg/kg/injection, schedule: Q01DX009 (ip), vehicle: saline with Tween-80) was 86 % of control.
For `C[C@]1(O)CC[C@H]2[C@@H]3CCC4=CC(=O)CCC4=C3C=C[C@@]21C`, the T/C (dose: 12.5 mg/kg/injection, schedule: Q01DX009 (ip), vehicle: Klucel (hydroxypropylcellulose) (HPC)) was 87 % of control, the T/C (dose: 25.0 mg/kg/injection, schedule: Q01DX009 (ip), vehicle: Klucel (hydroxypropylcellulose) (HPC)) was 91 % of control and the T/C (dose: 50.0 mg/kg/injection, schedule: Q01DX009 (ip), vehicle: Klucel (hydroxypropylcellulose) (HPC)) was 91 % of control. The T/C [11] was 104 % of control, the T/C [12] was 104 % of control and the T/C [13] was 109 % of control. The T/C [14] was 104 % of control.
`CSc1cccc(NC(=O)Oc2cc(C)c(Cl)c(C)c2Cl)c1` was tested, and the T/C (dose: 6.25 mg/kg/injection, schedule: Q01DX009 (ip), vehicle: DMSO) was 117 % of control and the T/C (dose: 12.5 mg/kg/injection, schedule: Q01DX009 (ip), vehicle: DMSO) was 102 % of control.
`O=[N+]([O-])c1ccc(-c2nc3ncccn3n2)cc1` was tested, and the T/C [6] was 90 % of control, the T/C [8] was 100 % of control and the T/C [10] was 100 % of control.
`O=[N+]([O-])C(Br)(c1ccccc1)S(=O)(=O)Cc1ccccc1` (stereo unspecified) was tested, and the T/C [12] was 104 % of control, the T/C [14] was 108 % of control and the T/C [15] was 108 % of control.
For `O=c1cc[nH]c2cc(C(F)(F)F)ccc12`, the T/C (dose: 100.0 mg/kg/injection, schedule: Q04DX003 (ip), vehicle: saline sonified) was 100 % of control and the T/C (dose: 200.0 mg/kg/injection, schedule: Q04DX003 (ip), vehicle: saline sonified) was 95 % of control.
With `CC1CC2C(CC1=O)C(C)(C)CCC2(C)C` (stereo unspecified) the T/C [11] was 109 % of control, the T/C [13] was 104 % of control and the T/C (dose: 264.0 mg/kg/injection, schedule: Q04DX003 (ip), vehicle: Klucel (hydroxypropylcellulose) (HPC)) was 104 % of control and 109 % of control. For the same molecule, the T/C (dose: 400.0 mg/kg/injection, schedule: Q01DX009 (ip), vehicle: Klucel (hydroxypropylcellulose) (HPC)) was 86 % of control and the T/C [15] was 104 % of control.
In the case of `COC(=O)C(N)CCCCNc1ccc2c(cc1=O)C(NC(C)=O)CCc1cc(OC)c(OC)c(OC)c1-2` (stereo unspecified), the T/C (dose: 26.0 mg/kg/injection, schedule: Q01DX009 (ip), vehicle: saline with Tween-80) is reported as 124 % of control, the T/C (dose: 40.0 mg/kg/injection, schedule: Q01DX009 (ip), vehicle: saline with Tween-80) is reported as 118 % of control and the T/C (dose: 60.0 mg/kg/injection, schedule: Q01DX009 (ip), vehicle: saline with Tween-80) is reported as 119 % of control. For the same molecule, the T/C (dose: 90.0 mg/kg/injection, schedule: Q01DX009 (ip), vehicle: saline with Tween-80) was 117 % of control, the T/C [7] was 170 % of control and the T/C (dose: 300.0 mg/kg/injection, schedule: Q01DX009 (ip), vehicle: saline with Tween-80) was 159 % of control.
In the case of `O=C(c1ccccc1)c1cc(-c2ccccc2)n(C2CCCCC2)c1`, the T/C (dose: 25.0 mg/kg/injection, schedule: Q01DX009 (ip), vehicle: saline with Tween-80) is reported as 96 % of control, the T/C [16] is reported as 86 % of control and the T/C [5] is reported as 94 % of control. For the same molecule, the T/C [7] was 96 % of control.
In the case of `CC(=O)n1cc(C2CC(=O)OC3=C2C(=O)CCC3)c2ccccc21` (stereo unspecified), the T/C [5] is reported as 94 % of control, the T/C [6] is reported as 98 % of control and the T/C [7] is reported as 100 % of control. The T/C [8] was 93 % of control, the T/C [9] was 102 % of control and the T/C [10] was 93 % of control.
In the case of `CCOC(=O)C(=NN(C)C)C(=O)OCC`, the T/C (dose: 50.0 mg/kg/injection, schedule: Q01DX009 (ip), vehicle: saline) is reported as 104 % of control, the T/C (dose: 100.0 mg/kg/injection, schedule: Q01DX009 (ip), vehicle: saline) is reported as 92 % of control and the T/C [1] is reported as 101 % of control.
In the case of `c1cc(NC2CCCCC2)ccc1CN1CCOCC1`, the T/C (dose: 50.0 mg/kg/injection, schedule: Q01DX009 (ip), vehicle: other) is reported as 102 % of control and 109 % of control and the T/C (dose: 100.0 mg/kg/injection, schedule: Q01DX009 (ip), vehicle: other) is reported as 116 % of control.
With `COc1ccc(NC(C)=O)c(/C=N/Nc2ccc([N+](=O)[O-])cc2[N+](=O)[O-])c1` the T/C (dose: 50.0 mg/kg/injection, schedule: Q04DX002 (ip), vehicle: saline with Tween-80) was 89 % of control, the T/C (dose: 100.0 mg/kg/injection, schedule: Q04DX002 (ip), vehicle: saline with Tween-80) was 106 % of control and the T/C (dose: 200.0 mg/kg/injection, schedule: Q04DX002 (ip), vehicle: saline with Tween-80) was 106 % of control.
`O=C1CSC(C23CC4CC(CC(C4)C2)C3)N1c1nccs1` (stereo unspecified) was tested, and the T/C [16] was 92 % of control and the T/C [5] was 90 % of control.
With `CCc1nnc2sc3c(Cl)c4nn5c(CC)nnc5sc4c(Cl)c3nn12` the T/C [16] was 114 % of control, the T/C [5] was 118 % of control and the T/C [7] was 98 % of control.
For `CCN(CC)CCOCCO`, the T/C (dose: 100.0 mg/kg/injection, schedule: Q04DX003 (ip), vehicle: saline) was 110 % of control and the T/C (dose: 400.0 mg/kg/injection, schedule: Q04DX003 (ip), vehicle: saline) was 100 % of control.
With `COc1ccccc1C(=O)C(O)c1ccccc1OC` (stereo unspecified) the T/C [12] was 95 % of control, the T/C [14] was 104 % of control and the T/C [15] was 108 % of control.
`CCC(C(N)C(=O)O)C(F)(F)F` (stereo unspecified) was tested, and the T/C [2] was 103 % of control, the T/C [3] was 108 % of control and the T/C [4] was 103 % of control.
